The results in this text go back to doi:10.1101/2019.12.17.868638v2 (biorxiv, 2019).

The Km is the substrate concentration at which the rate is half of its maximum.

The test deals with RlSQase* (sulfoquinovosidase, K375A/K376A SERp variant). Particulars: 50 mM sodium phosphate, 150 mM NaCl, pH 7.2, 30 °C, 212 nM enzyme.

`O=[N+]([O-])c1ccc(O[C@H]2O[C@H](CS(=O)(=O)O)[C@@H](O)[C@H](O)[C@H]2O)cc1` [PNPSQ]: the Km turned out to be 680 ± 250 µM.
